Assay results: patent US20210255193A1, “LYSINE REACTIVE PROBES AND USES THEREOF” (The Scripps Research Institute, priority 2017, published 2021)
Entries after “also recorded” stand apart in the source; their conditions may differ.

How the values were obtained:
Experiment in all cases: competitive isoTOP-ABPP
Assay type in all cases: binding
[1] = biological target: T1, RQCD1 Cell differentiation protein RCD1 homolog (Homo sapiens, UniProt Q92600); conditions: for isoTOP-ABPP ratio, lysine Q92600_K230: 50 uM_231_sol_in vitro; for isoTOP-ABPP ratio (R) at liganded lysine Q92600_K230: sol, 231; for R value (DMSO/fragment) for probe 1 labeling: Q92600_K230
T1 construct: isoTOP-ABPP experiments performed in cell lysates (in vitro); endogenous in cells; host or cells: soluble proteome of human cancer cell lines (MDA-MB-231; Ramos and Jurkat also prepared)
T1 sequence (Q92600 whole entry, the tested form may be a part): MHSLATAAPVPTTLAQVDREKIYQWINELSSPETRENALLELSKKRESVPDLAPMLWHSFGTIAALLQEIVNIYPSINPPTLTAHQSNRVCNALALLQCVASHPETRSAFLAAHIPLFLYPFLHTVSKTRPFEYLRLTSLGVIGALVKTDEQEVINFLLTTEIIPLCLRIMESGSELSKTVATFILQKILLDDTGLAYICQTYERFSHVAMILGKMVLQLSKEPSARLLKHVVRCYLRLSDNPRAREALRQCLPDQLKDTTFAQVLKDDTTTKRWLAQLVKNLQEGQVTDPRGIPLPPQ
How it was run: (§1)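 Competition format: fragment (50 μM activated ester, 100 μM guanidinylating agent) versus vehicle in lysate, then lysine probe STP-alkyne at 0.1 mM for 1 h. Quantitation by light/heavy TEV-tag MS1 peak areas, reported as R.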

[2] = biological target: T2, GLUD1 Glutamate dehydrogenase 1, mitochondrial (Homo sapiens, UniProt P00367); conditions: for isoTOP-ABPP ratio, lysine P00367_K480: 50 uM_231_sol_in vitro, possible other lysine P00367_K477; for isoTOP-ABPP ratio (R) at liganded lysine P00367_K480: sol, 231; for R value (DMSO/fragment) for probe 1 labeling: P00367_K480
T2 construct: isoTOP-ABPP experiments performed in cell lysates (in vitro); endogenous in cells; host or cells: MDA-MB-231 soluble lysate
T2 sequence (P00367 54-558): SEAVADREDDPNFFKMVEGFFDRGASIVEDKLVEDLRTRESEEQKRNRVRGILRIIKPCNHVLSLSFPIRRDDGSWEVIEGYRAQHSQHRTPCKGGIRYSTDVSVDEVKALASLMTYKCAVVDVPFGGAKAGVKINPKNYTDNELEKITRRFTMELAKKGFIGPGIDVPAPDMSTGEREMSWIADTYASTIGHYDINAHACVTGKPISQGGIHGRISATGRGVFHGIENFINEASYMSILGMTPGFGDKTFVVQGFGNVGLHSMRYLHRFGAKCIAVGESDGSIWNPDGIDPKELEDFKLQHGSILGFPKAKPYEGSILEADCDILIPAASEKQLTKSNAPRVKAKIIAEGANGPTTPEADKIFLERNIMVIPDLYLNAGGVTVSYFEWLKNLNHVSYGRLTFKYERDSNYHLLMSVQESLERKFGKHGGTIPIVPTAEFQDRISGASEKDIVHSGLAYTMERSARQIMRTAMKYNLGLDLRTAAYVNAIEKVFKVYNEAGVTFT
How it was run: as §1

[3] = biological target: T3, SIN3A Paired amphipathic helix protein Sin3a (Homo sapiens, UniProt Q96ST3); conditions: for isoTOP-ABPP ratio, lysine Q96ST3_K155: 50 uM_231_sol_in vitro, possible other lysine Q96ST3_K152; for isoTOP-ABPP ratio (R) at liganded lysine Q96ST3_K155: sol, 231; for R value (DMSO/fragment) for probe 1 labeling: Q96ST3_K155
T3 construct: isoTOP-ABPP experiments performed in cell lysates (in vitro); endogenous in cells; host or cells: soluble proteome of human cancer cell lines (MDA-MB-231; Ramos and Jurkat also prepared)
T3 sequence (Q96ST3 1-1273): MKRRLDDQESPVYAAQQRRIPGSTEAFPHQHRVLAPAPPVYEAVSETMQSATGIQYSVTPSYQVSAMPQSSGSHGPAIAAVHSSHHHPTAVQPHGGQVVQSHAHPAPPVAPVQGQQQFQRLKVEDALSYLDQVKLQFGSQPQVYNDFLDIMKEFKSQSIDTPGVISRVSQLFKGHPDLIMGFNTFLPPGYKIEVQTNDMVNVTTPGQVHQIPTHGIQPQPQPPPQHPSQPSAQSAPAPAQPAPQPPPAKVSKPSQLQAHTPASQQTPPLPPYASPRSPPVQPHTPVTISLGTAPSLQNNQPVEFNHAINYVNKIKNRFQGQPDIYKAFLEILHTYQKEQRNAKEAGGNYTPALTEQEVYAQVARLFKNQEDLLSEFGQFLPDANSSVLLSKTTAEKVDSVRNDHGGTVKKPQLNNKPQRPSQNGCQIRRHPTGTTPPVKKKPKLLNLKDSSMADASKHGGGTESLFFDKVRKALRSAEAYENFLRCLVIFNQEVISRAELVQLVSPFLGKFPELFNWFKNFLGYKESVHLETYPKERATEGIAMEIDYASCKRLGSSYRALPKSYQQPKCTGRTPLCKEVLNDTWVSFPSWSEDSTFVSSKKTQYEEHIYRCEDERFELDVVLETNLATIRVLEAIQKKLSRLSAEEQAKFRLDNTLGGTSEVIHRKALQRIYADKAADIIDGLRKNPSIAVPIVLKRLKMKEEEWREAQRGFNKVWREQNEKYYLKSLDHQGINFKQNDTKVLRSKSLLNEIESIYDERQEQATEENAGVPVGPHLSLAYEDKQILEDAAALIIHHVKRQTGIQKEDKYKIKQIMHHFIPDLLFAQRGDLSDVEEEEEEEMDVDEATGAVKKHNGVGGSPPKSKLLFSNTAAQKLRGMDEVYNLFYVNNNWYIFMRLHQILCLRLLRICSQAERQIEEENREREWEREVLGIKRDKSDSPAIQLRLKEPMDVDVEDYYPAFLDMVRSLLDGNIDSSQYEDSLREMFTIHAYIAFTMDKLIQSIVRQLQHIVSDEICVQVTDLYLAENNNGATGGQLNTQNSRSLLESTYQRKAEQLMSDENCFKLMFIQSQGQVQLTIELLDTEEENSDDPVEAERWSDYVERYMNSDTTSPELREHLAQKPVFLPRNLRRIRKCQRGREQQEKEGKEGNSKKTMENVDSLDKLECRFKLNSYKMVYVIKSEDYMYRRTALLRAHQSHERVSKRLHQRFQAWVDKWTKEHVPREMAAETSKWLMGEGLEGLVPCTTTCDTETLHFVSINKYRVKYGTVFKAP
How it was run: as §1

Row | SMILES | isoTOP-ABPP ratio (R) at liganded lysine Q92600_K230 ([1]; 50 uM, in vitro) | isoTOP-ABPP ratio (R) at liganded lysine P00367_K480 ([2]; 50 uM, in vitro) | isoTOP-ABPP ratio (R) at liganded lysine Q96ST3_K155 ([3]; 50 uM, in vitro) | R value (DMSO/fragment) for probe 1 labeling ([1]; 50 uM, 231 sol, in vitro) | R value (DMSO/fragment) for probe 1 labeling ([2]; 50 uM, 231 sol, in vitro) | R value (DMSO/fragment) for probe 1 labeling ([3]; 50 uM, 231 sol, in vitro) | other results
1 | N#Cc1ccc(C(=O)Oc2ccc([N+](=O)[O-])cc2[N+](=O)[O-])cc1 [fragment 44, 2,4-Dinitrophenyl 4-cyanobenzoate] | – | – | – | – | – | – | isoTOP-ABPP ratio, lysine Q92600_K230 [1]: 1.0; isoTOP-ABPP ratio, lysine P00367_K480 [2]: 1.2; isoTOP-ABPP ratio, lysine Q96ST3_K155 [3]: 1.5
2 | O=C(Oc1ccc([N+](=O)[O-])cc1[N+](=O)[O-])c1ccc(-c2ccccc2)cc1 [fragment 37, 2,4-Dinitrophenyl [1,1′-biphenyl]-4-carboxylate] | 0.8 | 1.1 | 1.1 | – | – | – | –
3 | O=C(CCc1ccc2c(c1)OCO2)Oc1ccc([N+](=O)[O-])cc1[N+](=O)[O-] [fragment 45, 2,4-Dinitrophenyl 3-(benzo[d][1,3]dioxol-5-yl)propanoate] | – | – | – | – | – | – | isoTOP-ABPP ratio, lysine Q92600_K230 [1]: 1.7; isoTOP-ABPP ratio, lysine P00367_K480 [2]: 2.8; isoTOP-ABPP ratio, lysine Q96ST3_K155 [3]: 1.5
4 | O=C(Oc1c(F)c(F)c(F)c(F)c1F)C(c1ccccc1)c1ccccc1 [fragment 20, Pentafluorophenyl 2,2-diphenylacetate] | – | – | – | 0.9 | 1.4 | 1.2 | –
5 | O=C(Oc1ccc([N+](=O)[O-])cc1[N+](=O)[O-])c1ccc2ccccc2n1 [fragment 35, 2,4-Dinitrophenyl quinoline-2-carboxylate] | 0.9 | 1.8 | 1.6 | – | – | – | –
6 | O=C(Oc1c(F)c(F)c(F)c(F)c1F)c1cc(C(F)(F)F)cc(C(F)(F)F)c1 [fragment 21, Pentafluorophenyl 3,5-bis(trifluoromethyl)benzoate] | – | – | – | 0.9 | 1.2 | 20.0 | engagement of K155, competition of probe 1 labeling ([3]; SIN3A K155, 21 50 μM): engages K155 in SIN3A; also recorded: fully competes probe 1 labeling of K155
7 | CC(C)(C)OC(=O)NCCCC(=O)Oc1ccc([N+](=O)[O-])cc1[N+](=O)[O-] [fragment 41, 2,4-Dinitrophenyl 4-((tert-butoxycarbonyl)amino)butanoate] | 2.6 | 3.7 | 1.3 | – | – | – | –
8 | Cn1cc(CC(=O)Oc2ccc([N+](=O)[O-])cc2[N+](=O)[O-])c2ccccc21 [fragment 32, 2,4-Dinitrophenyl 2-(1-methyl-1H-indol-3-yl)acetate] | – | – | – | – | – | – | isoTOP-ABPP reactivity ratio at lysine Q92600_K230 ([1]; 50 uM, 231 sol, in vitro): 10.2; isoTOP-ABPP reactivity ratio at lysine P00367_K480 ([2]; 50 uM, 231 sol, in vitro): 4.4; isoTOP-ABPP reactivity ratio at lysine Q96ST3_K155 ([3]; 50 uM, 231 sol, in vitro): 17.5
9 | COc1cc(CCC(=O)Oc2c(F)c(F)c(F)c(F)c2F)cc(OC)c1OC [fragment 23, Pentafluorophenyl 3-(3,4,5-trimethoxyphenyl)propanoate] | – | – | – | 1.1 | 1.8 | 4.1 | –
10 | O=C(Oc1ccc([N+](=O)[O-])cc1[N+](=O)[O-])c1ccc(Oc2ccccc2)cc1 [fragment 39, 2,4-Dinitrophenyl 4-phenoxybenzoate] | 0.8 | 1.0 | 1.0 | – | – | – | –
